{"source": "patent US20240083903A1", "about": "“ARYL ETHER COMPOUNDS AS TEAD MODULATORS” (Merck Sharp& Dohme LLC, priority 2021, published 2024)", "data": [{"test_system": "TEAD Reporter-MCF7 cell line", "test": "YAP/TEAD cellular activity assay: inhibition of TEAD-Luc activity in TEAD Reporter-MCF7 cell line", "format": "cell-based, human", "conditions": "Homo sapiens, MCF7, 24 h, TEAD Reporter-MCF7 cells, 24 hours incubation with compound, luciferase readout", "method_in_brief": "(§1)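 MCF7 cells stably carrying a TEAD-responsive firefly luciferase reporter were seeded at 10,000 cells/well, grown 20-24 h, then exposed to compounds for 24 h at 37° C. Luciferase read by ONE-Glo EX luminescence; percent inhibition and EC50 derived.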", "units": {"EC50": "nM"}, "values": [{"compound": "CNS(=O)(=O)c1ccc(Oc2ccc(C)cc2F)c(-c2cn3c(n2)CCC3)c1", "note": "[4-19, 3-(6,7-dihydro-5H-pyrrolo[1,2-a]imidazol-2-yl)-4-(2-fluoro-4-methylphenoxy)-N-methylbenzene-1-sulfonamide]", "EC50": 15.3}, {"compound": "CNS(=O)(=O)c1ccc(Oc2ccc(Cl)cc2F)c(-c2cn3c(n2)CCC3)c1", "note": "[4-20, 4-(4-chloro-2-fluorophenoxy)-3-(6,7-dihydro-5H-pyrrolo[1,2-a]imidazol-2-yl)-N-methylbenzene-1-sulfonamide]", "EC50": 15}, {"compound": "O=S(=O)(NCC1CC1)c1ccc(Oc2ccc(C(F)(F)F)cc2)c(-c2cnn3c2CCC3)c1", "note": "[5-1, N-(Cyclopropylmethyl)-3-(5,6-dihydro-4H-pyrrolo[1,2-b]pyrazol-3-yl)-4-(4-(trifluoromethyl)phenoxy)benzenesulfonamide]", "EC50": 4410}, {"compound": "CNS(=O)(=O)c1ccc(Oc2ccc(C(F)(F)F)cc2)c(-n2cc3c(n2)CN(C)C3)c1", "note": "[6-1, N-Methyl-3-(5-methyl-5,6-dihydropyrrolo [3,4-c]pyrazol-2(4H)-yl)-4-(4-(trifluoromethyl)phenoxy)benzenesulfonamide]", "EC50": 6690}, {"compound": "CNS(=O)(=O)c1ccc(Oc2ccc(C(F)(F)F)cc2)c(-n2cc3c(n2)CCC3)c1", "note": "[6-2, 3-(5,6-dihydrocyclopenta[c]pyrazol-2(4H)-yl)-N-methyl-4-[4-(trifluoromethyl)phenoxy]benzene-1-sulfonamide]", "EC50": 68.5}, {"compound": "CCNS(=O)(=O)c1ccc(Oc2ccc(C(F)(F)F)cc2)c(-c2cn3c(n2)CCC3)c1", "note": "[7-2, 3-(6,7-dihydro-5H-pyrrolo[1,2-a]imidazol-2-yl)-N-ethyl-4-[4-(trifluoromethyl)phenoxy]benzene-1-sulfonamide]", "EC50": 35.2}, {"compound": "O=S(=O)(NC1CC1)c1ccc(Oc2ccc(C(F)(F)F)cc2)c(-c2cn3c(n2)CCC3)c1", "note": "[7-3, N-cyclopropyl-3-(6,7-dihydro-5H-pyrrolo[1,2-a]imidazol-2-yl)-4-(4-(trifluoromethyl)phenoxy)benzenesulfonamide]", "EC50": 17.8}, {"compound": "CNS(=O)(=O)c1ccc(Oc2ccc(F)cc2)c(-c2cc3n(n2)CCC3)c1", "note": "[8-2, 3-(5,6-dihydro-4H-pyrrolo[1,2-b]pyrazol-2-yl)-4-(4-fluorophenoxy)-N-methylbenzene-1-sulfonamide]", "EC50": 21.5}, {"compound": "CNS(=O)(=O)c1cnc(Oc2ccc(C(F)(F)F)cc2)c(-c2cc3n(n2)CCC3)c1", "note": "[8-3, 5-(5,6-dihydro-4H-pyrrolo[1,2-b]pyrazol-2-yl)-N-methyl-6-[4-(trifluoromethyl)phenoxy]pyridine-3-sulfonamide]", "EC50": 1.3}, {"compound": "CNS(=O)(=O)c1ccc(Oc2ccc(C(F)F)cc2)c(-c2cc3n(n2)CCC3)c1", "note": "[8-4, 4-[4-(difluoromethyl)phenoxy]-3-(5,6-dihydro-4H-pyrrolo[1,2-b]pyrazol-2-yl)-N-methylbenzene-1-sulfonamide]", "EC50": 46.6}, {"compound": "CNS(=O)(=O)c1ccc(Oc2ccc(C(F)(F)F)cc2)c(-c2cn3c(n2)C(O)CC3)c1", "note": "(stereo not drawn) [9-1, 3-(7-Hydroxy-6,7-dihydro-5H-pyrrolo[1,2-a]imidazol-2-yl)-N-methyl-4-(4-(trifluoromethyl)phenoxy)benzenesulfonamide]", "EC50": 907}, {"compound": "CNS(=O)(=O)c1ccc(Oc2ccc(C(F)(F)F)cc2)c(-c2cn3c(n2)C(C)(O)CC3)c1", "note": "(stereo not drawn) [9-2, 3-(7-Hydroxy-7-methyl-6,7-dihydro-5H-pyrrolo[1,2-a]imidazol-2-yl)-N-methyl-4-(4-(trifluoromethyl)phenoxy)benzenesulfonamide]", "EC50": 304}, {"compound": "CNS(=O)(=O)c1ccc(Oc2ccc(C(F)(F)F)cn2)c(-c2cn3c(n2)CCC3)c1", "note": "[10-1, 3-(6,7-Dihydro-5H-pyrrolo[1,2-a]imidazol-2-yl)-N-methyl-4-((5-(trifluoromethyl)pyridin-2-yl)oxy)benzenesulfonamide]", "EC50": 49.8}, {"compound": "CNS(=O)(=O)c1cnc(Oc2ccc(C(F)(F)F)cc2)c(-c2cn3c(n2)CCC3)c1", "note": "[11-1, 5-(6,7-dihydro-5H-pyrrolo[1,2-a]imidazol-2-yl)-N-methyl-6-[4-(trifluoromethyl)phenoxy]pyridine-3-sulfonamide]", "EC50": 8.7}]}, {"test_system": "TEAD Reporter-MCF7 cell line", "test": "YAP/TEAD cellular activity assay: inhibition of TEAD-Luc activity in TEAD Reporter-MCF7 cell line", "format": "cell-based, human", "conditions": "Homo sapiens; TEAD Reporter-MCF7 cells, 24 hours incubation with compound, luciferase readout", "method_in_brief": "as §1", "units": {"EC50": "nM"}, "values": [{"compound": "CC(C)NS(=O)(=O)c1ccc(Oc2ccc(C(F)(F)F)cc2)c(-c2cn3c(n2)CCC3)c1", "note": "[7-1, 3-(6,7-dihydro-5H-pyrrolo[1,2-a]imidazol-2-yl)-N-(propan-2-yl)-4-[4-(trifluoromethyl)phenoxy]benzene-1-sulfonamide]", "EC50": 138}, {"compound": "CNS(=O)(=O)c1ccc(Oc2ccc(Cl)cc2)c(-c2cc3n(n2)CCC3)c1", "note": "[8-1, 4-(4-Chlorophenoxy)-3-(5,6-dihydro-4H-pyrrolo[1,2-b]pyrazol-2-yl)-N-methylbenzene-1-sulfonamide]", "EC50": 10.4}]}, {"test_system": "TEAD Reporter-MCF7 cell line", "test": "YAP/TEAD cellular activity assay: inhibition of TEAD-Luc activity in TEAD Reporter-MCF7 cell line", "format": "cell-based, human", "conditions": "TEAD Reporter-MCF7 cells, 24 hours incubation with compound, luciferase readout", "method_in_brief": "as §1", "units": {"EC50": "nM"}, "values": [{"compound": "CNS(=O)(=O)c1ccc(Oc2ccc(F)cc2F)c(-c2cn3c(n2)CCC3)c1", "note": "[4-21, 4-(2,4-difluorophenoxy)-3-(6,7-dihydro-5H-pyrrolo[1,2-a]imidazol-2-yl)-N-methylbenzene-1-sulfonamide]", "EC50": 55.9}, {"compound": "CNS(=O)(=O)c1ccc(Oc2ccc(F)cc2F)c(-c2cn3c(n2)CCC3)c1", "note": "[4-22, 4-(2,4-difluorophenoxy)-3-(6,7-dihydro-5H-pyrrolo[1,2-a]imidazol-2-yl)-N-methylbenzene-1-sulfonamide]", "EC50": 25.3}]}]}
